According to publication PMC5131319, “Occurrence, temporal trends, and half-lives of perfluoroalkyl acids (PFAAs) in occupational workers in China” (Scientific Reports, 2016):
Values joined by “and” are separate entries in the source; they are usually repeats but may differ in a detail not shown here. Identical values can stand only once. Like-named read-outs stand apart in the source and are kept apart here.

Tests used:
[1] = PFAA concentration in serum of occupational workers (HPLC-ESI/MS/MS); assay type: in vivo, human; design: Serum PFAA level: unit: ng/mL; details: for Serum concentration, geometric mean: all occupational workers
Method: The selected fluorochemical plant (Henxin Chemical Plant) in this study is one of the largest producers of PFOS-related chemicals in China and is located in Yingcheng, Hubei province. Perfluoroalkyl sulfonic acids (PFSAs) and perfluorotertiary amines are synthesized through an electro-chemical fluorination (ECF) process. We collected paired serum and urine samples from the occupational workers in the plant for five consecutive years, and the sampling activities were carried out in Nov. 2008, Nov. 2009, Nov. 2010, Dec. 2011, and Dec 2012, respectively. The Medical Research Ethics Committee, School of Medicine, Jianghan University, approved the ethics of this study, and all methods were performed in accordance with the relevant guidelines and regulations, moreover, all volunteers gave written informed consent. Demographic information of the donors, including gender, age, length of service, and work assignment, was collected with a questionnaire (Table S1). The sampled population included a total of 302 occupational workers, of which there were 89 female and 213 male participants. In total, 302 serum and 274 urine samples were collected.
The participants were told not to eat breakfast before the sampling, and morning urine samples and blood samples were collected. Serum was separated from the blood by centrifugation at 1100 × g at 4 °C for 10 min and then placed on ice. Serum samples were then transferred to our laboratory on the same day and stored in polypropylene containers at −20 °C until analysis.
All pre-treatment methods and instrument analysis of PFAAs in serum and urine samples are based on previous studies with minor modifications (see Supplementary Information)[3][31]. Based on the PFAA profiles in environmental matrices around the same plant in our previous study, only 3 main PFAAs, PFHxS, PFOA, and PFOS, were analyzed in the obtained serum and urine samples. Instrumental analysis of the PFAAs was performed by a HPLC-ESI/MS/MS system (HPLC: Waters 2695, MS: Waters Quattro Premier XE). The limits of detection (LODs) of PFHxS, PFOA, and PFOS were 0.020, 0.063, and 0.018 ng mL^−1 for serum samples and 0.008, 0.025, and 0.007 ng mL^−1 for urine samples, respectively. A procedural blank was performed for every batch of seven samples, and all of the blank levels were below the LODs. […] Details of quality assurance and quality control of the chemical analysis can be found in the Supplementary Information.

[2] = cited from earlier work; for Clrenal, median: fishery employees from Tangxun Lake
[3] = Electrolytic Department, length of service 1-3 years
[4] = Electrolytic Department, length of service < 1 year
[5] = Electrolytic Department, length of service >3 years
[6] = Fabric finishing agent department, N 8
[7] = Management Office, length of service 1-3 years
[8] = Management Office, length of service < 1 year
[9] = Management Office, length of service >3 years
[10] = Research Building, length of service 1-3 years
[11] = Research Building, length of service < 1 year
[12] = Research Building, length of service >3 years
[13] = Sulfonation Department, length of service 1-3 years
[14] = Sulfonation Department, length of service < 1 year
[15] = Sulfonation Department, length of service >3 years
[16] = workers with service length 1–3 years
[17] = workers with service length less than 1 year
[18] = workers with service length more than 3 years
[19] = human, serum, other: occupational exposure, 46 workers sampled at least three times, 2008, read-out: Serum concentration, GM
[20] = human, serum, other: occupational exposure, 46 workers sampled at least three times, 2012, read-out: Serum concentration, GM

## O=S(=O)(O)C(F)(F)C(F)(F)C(F)(F)C(F)(F)C(F)(F)C(F)(F)C(F)(F)C(F)(F)F [PFOS, perfluorooctanesulfonate]
[1]; 46 workers sampled at least three times, 2008
  Serum concentration, GM: 1751 ng/mL
[1]; 46 workers sampled at least three times, 2009
  Serum concentration, GM: 1095 ng/mL
[1]; 46 workers sampled at least three times, 2012
  Serum concentration, GM: 2580 ng/mL
[1]; All workers, N 302
  Serum concentration, mean: 5624 ng/mL
  Serum concentration, range: 50.3 to 118000 ng/mL
[1]; [3]
  Serum PFAA level: 1827
[1]; [4]
  Serum PFAA level: 772
[1]; [5]
  Serum PFAA level: 1393
[1]; Electrolytic department, N 74
  Serum concentration, mean: 1909 ng/mL
  Serum concentration, median: 1541 ng/mL
  Serum concentration, range: 234 to 8501 ng/mL
[1]; [6]
  Serum concentration, mean: 514 ng/mL
  Serum concentration, median: 267 ng/mL
  Serum concentration, range: 103 to 1890 ng/mL
[1]; [7]
  Serum PFAA level: 641
[1]; [8]
  Serum PFAA level: 140
[1]; [9]
  Serum PFAA level: 728
[1]; Management office, N 92
  Serum concentration, mean: 1144 ng/mL
  Serum concentration, median: 616 ng/mL
  Serum concentration, range: 50.3 to 7910 ng/mL
[1]; [10]
  Serum PFAA level: 888
[1]; [11]
  Serum PFAA level: 318
[1]; [12]
  Serum PFAA level: 890
[1]; Research building, N 27
  Serum concentration, mean: 1195 ng/mL
  Serum concentration, median: 736 ng/mL
  Serum concentration, range: 101 to 7450 ng/mL
[1]; [13]
  Serum PFAA level: 5463
[1]; [14]
  Serum PFAA level: 5174
[1]; [15]
  Serum PFAA level: 7756
[1]; Sulfonation department, N 101
  Serum concentration, mean: 14002 ng/mL
  Serum concentration, median: 5544 ng/mL
  Serum concentration, range: 416 to 118000 ng/mL
[1]
  Serum concentration, geometric mean: 1677 ng/mL
[1]; female workers, n 89
  Average serum concentration (Average ± SD): 2,221 ± 4,791 ng mL^−1
[1]; male workers, n 213
  Average serum concentration (Average ± SD): 7,040 ± 15382 ng mL^−1
[1]; present study, workers
  Serum concentration below which 85 percent of the population lies: 6775 ng/mL
[1]; serum, sampling year 2008, individual occupational workers
  Serum PFOS concentration: 853 ng/mL and 83 ng/mL and 463 ng/mL and 635 ng/mL and 357 ng/mL and 25000 ng/mL and 4570 ng/mL and 4540 ng/mL and 460 ng/mL and 3220 ng/mL and 4170 ng/mL and 3160 ng/mL and 2690 ng/mL and 650 ng/mL and 620 ng/mL and 250 ng/mL and 3580 ng/mL and 3030 ng/mL and 1770 ng/mL and 5220 ng/mL and 1970 ng/mL and 3940 ng/mL and 2600 ng/mL and 8430 ng/mL and 7450 ng/mL and 3800 ng/mL and 1450 ng/mL and 1280 ng/mL
[1]; [16]
  Serum concentration, GM: 1861 ng/mL
[1]; [17]
  Serum concentration, GM: 782 ng/mL
[1]; [18]
  Serum concentration, GM: 1876 ng/mL
[2]
  Clrenal values obtained from different sources, range: 0.01 to 0.1 mL/day/kg
  Clrenal, median: 0.010 mL/day/kg

## O=S(=O)(O)C(F)(F)C(F)(F)C(F)(F)C(F)(F)C(F)(F)C(F)(F)F [PFHxS, perfluorohexane sulfonate]
[1]; All workers, N 302
  Serum concentration, mean: 1855 ng/mL
  Serum concentration, median: 764 ng/mL
[1]; [3]
  Serum PFAA level: 960
[1]; [4]
  Serum PFAA level: 197
[1]; [5]
  Serum PFAA level: 1116
[1]; Electrolytic department, N 74
  Serum concentration, mean: 1469 ng/mL
  Serum concentration, median: 1011 ng/mL
  Serum concentration, range: 46.6 to 6759 ng/mL
[1]; [6]
  Serum concentration, mean: 1956 ng/mL
  Serum concentration, median: 1768 ng/mL
  Serum concentration, range: 550 to 4690 ng/mL
[1]; [7]
  Serum PFAA level: 65.1
[1]; [8]
  Serum PFAA level: 8.5
[1]; [9]
  Serum PFAA level: 186
[1]; Management office, N 92
  Serum concentration, mean: 331 ng/mL
  Serum concentration, median: 169 ng/mL
[1]; [10]
  Serum PFAA level: 946
[1]; [11]
  Serum PFAA level: 26
[1]; [12]
  Serum PFAA level: 607
[1]; Research building, N 27
  Serum concentration, mean: 842 ng/mL
  Serum concentration, median: 506 ng/mL
  Serum concentration, range: 3.0 to 3360 ng/mL
[1]; [13]
  Serum PFAA level: 1477
[1]; [14]
  Serum PFAA level: 1129
[1]; [15]
  Serum PFAA level: 3087
[1]; Sulfonation department, N 101
  Serum concentration, mean: 3778 ng/mL
  Serum concentration, median: 2250 ng/mL
[1]
  Serum concentration, geometric mean: 628 ng/mL
[1]; female workers, n 89
  Average serum concentration (Average ± SD): 1,044 ± 1718 ng mL^−1
[1]; human, serum, 2009, 37 workers, read-out: Serum concentration in workers (decline estimate)
  concentration at 2009 calendar year: 455 ng/mL
[1]; human, serum, 2010, 37 workers, read-out: Serum concentration in workers (decline estimate)
  concentration at 2010 calendar year: 366 ng/mL
[1]; [19]
  concentration at 2008 calendar year: 328 ng/mL
[1]; [20]
  concentration at 2012 calendar year: 1670 ng/mL
[1]; male workers, n 213
  Average serum concentration (Average ± SD): 2,191 ± 3,050 ng mL^−1
[1]; [16]
  Serum concentration, GM: 521 ng/mL
[1]; [17]
  Serum concentration, GM: 212 ng/mL
[1]; [18]
  Serum concentration, GM: 830 ng/mL
[2]
  Clrenal, median: 0.012 mL/day/kg

## O=C(O)C(F)(F)C(F)(F)C(F)(F)C(F)(F)C(F)(F)C(F)(F)C(F)(F)F [PFOA, perfluorooctanoic acid]
[1]; All workers, N 302
  Serum concentration, mean: 1052 ng/mL
  Serum concentration, median: 427 ng/mL
  Serum concentration, range: 2.5 to 32000 ng/mL
[1]; [4]
  Serum PFAA level: 118
[1]; Electrolytic department, N 74
  Serum concentration, mean: 2337 ng/mL
  Serum concentration, median: 1126 ng/mL
  Serum concentration, range: 55.9 to 32000 ng/mL
[1]; [6]
  Serum concentration, mean: 606 ng/mL
  Serum concentration, median: 114 ng/mL
  Serum concentration, range: 51 to 2600 ng/mL
[1]; [7]
  Serum PFAA level: 48.3
[1]; [8]
  Serum PFAA level: 9.9
[1]; [9]
  Serum PFAA level: 167
[1]; Management office, N 92
  Serum concentration, mean: 362 ng/mL
  Serum concentration, median: 101 ng/mL
  Serum concentration, range: 2.5 to 4380 ng/mL
[1]; [10]
  Serum PFAA level: 124
[1]; [12]
  Serum PFAA level: 276
[1]; Research building, N 27
  Serum concentration, mean: 404 ng/mL
  Serum concentration, median: 142 ng/mL
  Serum concentration, range: 4.7 to 2920 ng/mL
[1]; [13]
  Serum PFAA level: 371
[1]; [14]
  Serum PFAA level: 185
[1]; [15]
  Serum PFAA level: 896
[1]; Sulfonation department, N 101
  Serum concentration, mean: 929 ng/mL
  Serum concentration, median: 603 ng/mL
  Serum concentration, range: 4.9 to 4630 ng/mL
[1]
  Serum concentration, geometric mean: 334 ng/mL
[1]; female workers, n 89
  Average serum concentration (Average ± SD): 659 ± 743 ng/mL
[1]; [19]
  concentration at 2008 calendar year: 368 ng/mL
[1]; human, serum, other: occupational exposure, 46 workers sampled at least three times, 2009, read-out: Serum concentration, GM
  concentration at 2009 calendar year: 252 ng/mL
[1]; human, serum, other: occupational exposure, 46 workers sampled at least three times, 2010, read-out: Serum concentration, GM
  concentration at 2010 calendar year: 622 ng/mL
[1]; human, serum, other: occupational exposure, 46 workers sampled at least three times, 2011, read-out: Serum concentration, GM
  concentration at 2011 calendar year: 692 ng/mL
[1]; [20]
  concentration at 2012 calendar year: 416 ng/mL
[1]; male workers, n 213
  Average serum concentration (Average ± SD): 1,215 ± 2,936 ng mL^−1
[1]; [16]
  Serum concentration, GM: 222 ng/mL
[1]; [17]
  Serum concentration, GM: 68 ng/mL
[1]; [18]
  Serum concentration, GM: 527 ng/mL
